According to US8466104B2, “Therapeutically active alpha MSH analogues” (AbbVie Inc., priority 2005, dated 2013):

Legend:
[1] = tested on: neutrophil and eosinophil infiltration in BALF after LPS inhalation; assay: Inhibition of neutrophil and eosinophil infiltration after LPS inhalation in rats (experimental setup 3); type: in vivo, rat; details: for number of eosinophils within the BALF / number of neutrophils within the BALF: 24 hours after LPS inhalation, 200 μg/kg bw iv bid; for effect on neutrophils within the BALF compared to a-MSH / reduction of eosinophils in the BALF / lungs: LPS inhalation
Experimental: Inhibition of Neutrophil and Eosinophil Infiltration after LPS Inhalation in Rats.
Male Sprague-Dawley rats (weight ˜200 g) from M&B A/S, DK-8680 Ry, Denmark, are used for all experiments. The rats are caged in standard cages type 3 and housed in a temperature- (22-24° C.) and moisture-controlled (40-70%) room with a 12 h light-dark cycle (light on from 6:00 A.M. to 6:00 P.M.). The diet is autoclaved Altromin 1324 special formulation, Produced by Altromin Denmark, Chr. Pedersen A/S, 4100 Ringsted, Denmark. Diet and water are administered ad libitum.
After acclimatization the rats are randomly allocated to the experimental groups and dosed i.v. with test compound at start of LPS-induction and once again 8 hours after LPS-induction.
Rats in groups of 3 are anaesthetized with 0.1 ml hypnorm/dormicum pr. 100 g and dosed i.v with the test compound. Immediately after dosing they are placed in the inhalation chamber where they are subjected to a nebulized LPS solution. The concentration of LPS is 1 mg/ml. Dosing time is 15 minutes. The rats are euthanized 24 hours after dosing with the test substance. At termination the rats are euthanized with CO2/O2. Then bronchoalveolar lavage is performed by installing and withdrawing 6×2.5 ml of PBS to the right lung. Lavage is done with the lungs remaining in the thorax after removing sternum and costae. The connection to the left lung is tied off during this procedure. Bronchoalveolar fluid (BALF) is centrifuged at 1000 rpm at 4° C. for 10 minutes. After removing the supernatant the cell pellet is resuspended in 0.5 ml PBS and total cell count performed. Two smears of BALF stained with May-Grüjwald Giemsa stain is made from each rat. BALF from each rat is subjected to total cell count and to differential count of leucocytes.
In addition to LPS infusion all rats are treated with bolus injections of either:
• a-MSH: 200 μg/kg/bw • a-MSH analogue: 200 μg/kg/bw
Data are presented as mean±S.E. Between group comparisons are performed by one way analysis of variance followed by Fishers Least Significant Difference test. Differences are considered significant at the 0.05 level.

[2] = tested on: myocardial infarction induced by LAD occlusion in rats; assay: Inhibition of myocardial infarction size induced by 60 minutes occlusion of the left anterior descending coronary artery in rats (experimental setup 5); type: in vivo, rat; details: for dose at which the maximal inhibitory effect on infarction size is achieved: 200 and 1000 μg/kg tested; for effect on myocardial infarction size (in contrast to / compared to a-MSH) / myocardial infarction size, necrotic area as % of area of risk: 3 hours after LAD-reperfusion
Experimental: Inhibition of Myocardial Infarction Size, Induced by 60 Minutes Occlusion of the Left Anterior Descending Coronary Artery in Rats.
Barrier-bred and specific pathogen-free female Wistar rats (250 g) are obtained from Charles River, Hannover, Germany. The animals are housed in a temperature (22-24° C.) and moisture (40-70%) controlled room with a 12-hour light-dark cycle (light on from 6:00 A.M. to 6:00 P.M.). All animals are given free access to tap water and a pelleted rat diet containing approximately 140 mmol/kg of sodium, 275 mmol/kg potassium and 23% protein (Altromin catalogue no. 1310, Altromin International, Lage, Germany). […] One week later the Rats are anaesthetized in an inhalation chamber with 4% isoflurane in O2. After insertion of an endotracheal tube the animal is artificially ventilated with 1.0% isoflurane in O2 using af Hugo Basile Rodent ventilator. Tidal volume is 8-10 ml/kg b.w. and respiratory rate 75 […], which maintains arterial pH between 7.35 and 7.45. During surgery the animal is placed on a heated table that maintains rectal temperature at 37-38° C. Standard ECG (second lead) is measured using a Hugo Sachs ECG Coupler and collected on line at 4,000 Hz in PowerLab. After parasternal thoracotomy and opening of the pericardium the left anterior descending coronary artery (LAD) is localized visually. An atraumatic 6-0 silk suture with an occluder that allows reopening of the ligature is placed around the LAD between the pulmonary trunk and the lower right end of the left auricle. After 10 minutes the left anterior descending coronary artery (LAD) is occluded. Successful occluding is confirmed by alterations in ECG (ST-segment elevation and increase in R-wave amplitude) and by fall in MAP. Reperfusion is made after 60 minutes by opening the occluder. Control rats are sham-operated.
The rats are subjected to one of the following i.v treatments: • Vehicle: 0.5 ml 150 mM NaCl. • a-MSH: 200 μg or 1000 μg a-melanocyte stimulating hormone/kg b.w. in 0.5 ml 150 mM NaCl.
Test compound 200 μg or 1000 μg test compound/kg b.w. in 0.5 ml 150 mM NaCl.
Treatment is given 5 minutes prior to reperfusion.
The rats are kept anaesthetized after the ischemia/reperfusion and re-occluding of the LAD is performed after three hours reperfusion. During this period ECG and MAP are measured continuously. Then Evans Blue dye (1 ml; 2% w/v) is administered i.v. to determine the size of the ischemic area. The heart is removed and cut into horizontal slices to determine the size of the ischemic area and to separate the ischemic myocardium from the non-ischemic myocardium. The ischemic area is isolated and incubated in a 0.5% triphenyltetrazolium chloride solution for 10 minutes at 37° C. The size of the necrotic tissue is then measured by used of a computerized image program. An additional setup of animals are treated with buprenorphine post-surgical and returned to there cages for measurement of left ventricular end diastolic pressure (LVEDP) two weeks later in order to evaluate the effect of the pharmacological treatment on the development of congestive heart failure. LVEDP is measured using a 2F microtip catheters inserted into the left ventricle via the right carotid artery. Isoflurane concentration is adjusted to stabilize mean arterial pressure (MAP) at 85-90 mmHg.
Data are presented as mean±S.E. Within group comparisons are analysed with Student's paired t test. Between group comparisons are performed by one way analysis of variance followed by Fishers Least Significant Difference test. Differences are considered significant at the 0.05 level.

[3] = 14 days after 60 minutes occlusion of LAD

Ac-Lys-Lys-Lys-Lys-Lys-Lys-Ser-Tyr-Ser-Met-Glu-His-Phe-Arg-Trp-Gly-Lys-Pro-Val-NH2 (Ac-KKKKKKSYSMEHFRWGKPV-NH2) [a-MSH analogue #1]
number of eosinophils within the BALF [1]: 49.0±10.5 ×10^5cells | effect on neutrophils within the BALF compared to a-MSH [1]: similar | reduction of eosinophils in the BALF / lungs [1]: marked reduction of eosinophils | reduction of eosinophils in the BALF / lungs ([1]; listed as SEQ ID NO:1*): significantly inhibits | reduction in infarction size compared to Vehicle treated rats ([2]; 200 μg/kg body weight): ~30% | reduction in infarction size compared to Vehicle treated rats ([2]; 1000 μg/kg body weight): ~30% | dose at which the maximal inhibitory effect on infarction size is achieved [2]: 200 μg/kg body weight | effect on myocardial infarction size (in contrast to / compared to a-MSH) [2]: reduces the myocardial infarction size | myocardial infarction size, necrotic area as % of area of risk ([2]; 200 μg/kg body weight iv): 35.7±5.6 % of area of risk | myocardial infarction size, necrotic area as % of area of risk ([2]; 1000 μg/kg body weight iv): 35.0±4.4 % of area of risk | effect on myocardial infarction size (in contrast to / compared to a-MSH) ([2]; listed as SEQ ID NO: 1): reduced the infarction size to a higher degree | effect on LVEDP / post-infarctional congestive heart failure [2, 3]: marked reduction in LVEDP | left ventricular end diastolic pressure (LVEDP) ([2]; 14 days after 60 minutes occlusion of LAD, 200 μg/kg bw): 10.4±2.9 mmHg

Ac-Lys-Lys-Lys-Lys-Lys-Lys-Ser-Tyr-Ser-Nle-Glu-His-(D-Phe)-Arg-Trp-Gly-Lys-Pro-Val-NH2 (KKKKKKSYSXEHFRWGKPV; N-acetyl, Nle, D-Phe, C-amide) [a-MSH analogue #2]
number of eosinophils within the BALF [1]: 34.0±8.6 ×10^5cells | number of neutrophils within the BALF [1]: 9.1±2.4 ×10^5cells | effect on neutrophils within the BALF compared to a-MSH [1]: much more pronounced inhibitory effects | reduction of eosinophils in the BALF / lungs [1]: marked reduction of eosinophils | effect on neutrophils within the BALF compared to a-MSH ([1]; listed as SEQ ID NO: 5*): markedly inhibited neutrophil infiltration to a much higher degree | reduction of eosinophils in the BALF / lungs ([1]; listed as SEQ ID NO: 5*): significantly inhibits | reduction in infarction size compared to Vehicle treated rats ([2]; 200 μg/kg body weight): ~27% | dose at which the maximal inhibitory effect on infarction size is achieved [2]: 200 μg/kg body weight | effect on myocardial infarction size (in contrast to / compared to a-MSH) [2]: reduces the myocardial infarction size | myocardial infarction size, necrotic area as % of area of risk ([2]; 200 μg/kg body weight iv): 37.4±5.1 % of area of risk | effect on myocardial infarction size (in contrast to / compared to a-MSH) ([2]; listed as SEQ ID NO: 5): reduced the infarction size to a higher degree | effect on LVEDP / post-infarctional congestive heart failure [2, 3]: marked reduction in LVEDP

Ac-Lys-Lys-Lys-Lys-Lys-Lys-Ser-Tyr-Ser-Nle-Glu-His-D-Nal-Arg-Trp-Gly-Lys-Pro-Val-NH2 (KKKKKKSYSXEHXRWGKPV; not fully specified; N-acetyl, Nle, D-Nal, C-amide) [a-MSH analogue #3]
reduction in infarction size compared to Vehicle treated rats ([2]; 200 μg/kg body weight): ~24% | dose at which the maximal inhibitory effect on infarction size is achieved [2]: 200 μg/kg body weight | effect on myocardial infarction size (in contrast to / compared to a-MSH) [2]: reduces the myocardial infarction size | myocardial infarction size, necrotic area as % of area of risk ([2]; 200 μg/kg body weight iv): 39.0±3.4 % of area of risk | effect on myocardial infarction size (in contrast to / compared to a-MSH) ([2]; listed as SEQ ID NO: 9): reduced the infarction size to a higher degree | effect on LVEDP / post-infarctional congestive heart failure [2, 3]: marked reduction in LVEDP

Ser-Tyr-Ser-Met-Glu-His-Phe-Arg-Trp-Gly-Lys-Pro-Val [a-MSH, reference compound]
number of eosinophils within the BALF [1]: 26.7±4.3 ×10^5cells | number of neutrophils within the BALF [1]: 20.1±2.5 ×10^5cells | reduction of eosinophils in the BALF / lungs [1]: marked reduction of eosinophils
